Target: T1, GBA1 (Homo sapiens, UniProt P04062)
T1 construct: endogenous in cells; host or cells: wild-type HEK293T
T1 sequence (P04062 40-536): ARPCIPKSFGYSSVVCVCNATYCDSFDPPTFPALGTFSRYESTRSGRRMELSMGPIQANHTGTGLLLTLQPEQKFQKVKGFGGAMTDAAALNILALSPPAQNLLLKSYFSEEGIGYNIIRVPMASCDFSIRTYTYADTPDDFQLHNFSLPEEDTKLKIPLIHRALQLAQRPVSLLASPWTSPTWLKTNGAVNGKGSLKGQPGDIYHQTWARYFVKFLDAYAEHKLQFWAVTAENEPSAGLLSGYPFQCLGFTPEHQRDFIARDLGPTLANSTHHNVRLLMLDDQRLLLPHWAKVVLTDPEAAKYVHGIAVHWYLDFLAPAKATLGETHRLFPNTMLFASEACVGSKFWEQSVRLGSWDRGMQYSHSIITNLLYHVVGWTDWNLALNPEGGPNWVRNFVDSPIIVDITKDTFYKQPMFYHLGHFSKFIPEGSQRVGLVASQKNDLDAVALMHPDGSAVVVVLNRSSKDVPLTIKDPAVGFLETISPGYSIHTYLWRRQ
Assay: In situ labelling of wild-type HEK293T cells, GBA1
Format: cell-based
Details: wild-type HEK293T intact cells; for GBA1 labelling in situ: 500 nM, 2.5 h
Procedure: Importantly, the GBA2 selectivity of β-D-Araf ABPs 3–5 was maintained during in situ labelling of wild-type HEK293T cells (ESI Fig. S9 ^†). […] Even after 24 h incubation, similar results were obtained: ABP 4 selectively labelled GBA2 at 10 nM, with only slight concomitant GBA1 labelling at concentrations higher than 100 nM (ESI Fig. S10 ^†). Selective GBA2 labelling by ABP 3 and 4 finally was also observed in human retinal pigment epithelial-1 cells (Fig. 5C).
Figure S9. Fluorescent gel images of in situ labelling of wild-type HEK293T cells by β-D-Araf aziridine ABPs 3-5.
β-D-Araf ABPs were firstly incubated with intact wild-type HEK293T cells for 1 or 2.5 h (1st incubation) and then cells were harvested. Lysis buffers containing different competitors (1 µM ABP or cyclophellitol inhibitor (CP, 1 µM for 150 nM set, 2 µM for 500 nM set)) was added to the harvested cells, cells were lysed, and lysate was incubated on ice for 30 min and additional 30 min at 37 °C (2nd incubation). Labelling of residual β-glucosidases was performed using ABPs 7 (for 3), 8 (for 4), or 9 (for 5) at 500 nM.
Figure S10. Fluorescent gel images of A) intact HEK293T wild-type cells labeled by β-D-Araf aziridine ABPs 3-5. […]
2.13 In situ intact cells labelling and inhibition assays
Confluent HEK293T cells expressing human endogenous GBA1 and GBA2/GBA3 OE, wild-type HEK293T cells or wild-type human retinal pigment epithelial-1 (RPE-1) cells were cultured in 12-well plates for duplicates or triplicates with (or without) compounds (3-5) for the described incubation times using the conditions as described for the cell culture. The cells were harvested as described in the cell lysis method. After determination of the protein concentration by BCA assay, the lysates were adjusted to 10 μL by addition of potassium phosphate buffer in order to normalize the amount of protein loaded (to 10-25 μg total protein per measurement), and subjected to the ABPP as […]
2.14 In situ visualization of GBA2 for confocal microscopy
HEK293T WT, GBA2 overexpression (GBA1 endogenous and GBA2 OE) and GBA1/GBA2 knockout (KO) GBA2 overexpression (GBA1/2 KO GBA2 OE) cells were cultured in DMEM High Glucose (Capricon Scientific) supplemented with 10% fetal calf serum, 1% (v/v) GlutaMax and 0.1% (w/v) penicillin/streptomycin.2,6 Cells were grown to approximately 75% confluence on Ø15 mm glass coverslips coated with 0.1 mg/ml poly-L-Lysine.
Samples were pretreated for 16 h with 100 nM of a GBA1 inhibitor (218, 0.5% DMSO), 500 nM of a GBA1 and GBA2 inhibitor (229, 0.5% DMSO) or with 0.5% DMSO alone. GBA2 was subsequently incubated by the addition of 50 nM ABP 4 (BODIPY-Red) to cells for 2 h at 37 °C with 5% CO2.
Unbound probe was washed away with PBS and cells were fixed with 4% paraformaldehyde (Alfa Aesar)/PBS for 15 min at RT. […]

SMILES | GBA1 labelling in situ | Concentrations giving slight concomitant GBA1 labelling in situ (24 h incubation)
COc1ccc(C2=[N+]3C(=C(CCCCc4cn(CCCCCCCCN5[C@@H]6[C@H](CO)[C@@H](O)[C@H](O)[C@@H]65)nn4)c4ccc(-c5ccc(OC)cc5)n4[B-]3(F)F)C=C2)cc1 (stereo partly shown) [ABP 4] | did not visibly label GBA1 | higher than 100 nM
CC1=CC(C)=[N+]2C1=C(CCCCc1cn(CCCCCCCCN3[C@@H]4[C@H](CO)[C@@H](O)[C@H](O)[C@@H]43)nn1)c1c(C)cc(C)n1[B-]2(F)F (stereo partly shown) [ABP 3] | did not visibly label GBA1 | 
CN1/C(=C/C=C/C=C/C2=[N+](CCCCCC(=O)NCc3cn(CCCCCCCCN4[C@@H]5[C@H](CO)[C@@H](O)[C@H](O)[C@@H]54)nn3)c3ccccc3C2(C)C)C(C)(C)c2ccccc21 (stereo partly shown) [ABP 5] | GBA1 labelling only occurred when using a high concentration (500 nM) and longer incubation time (2.5 h) | 
